Key:
[1] = Angle of repose (flowability) of powder; type: physicochemical
[2] = Storage life; type: physicochemical

c1ccc(C2C3=C(CCCC3)[Se]C3=C2CCCC3)cc1 [9-phenyl-symmetrical-octahydroselenoxanthene]
Angle of repose [1]: 52°
Storage life [2]: 6 months
